Experimental data: PubChem BioAssay (NCI)
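48-hour exposure; five concentrations; linearly interpolated endpoints. Definition used: TGI = concentration required for complete inhibition of growth.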

What was measured:
Experiment in all cases: NCI anticancer screen, dose series, 48 h
786-0 renal = test system: 786-0 renal
A498 renal = test system: A498 renal
A549 NSCLC = test system: A549 NSCLC
ACHN renal = test system: ACHN renal
BT-549 breast = test system: BT-549 breast
CAKI-1 renal = test system: CAKI-1 renal
CCRF-CEM leukemia = test system: CCRF-CEM leukemia
COLO 205 colon = test system: COLO 205 colon
DU-145 prostate = test system: DU-145 prostate
EKVX NSCLC = test system: EKVX NSCLC
HCC-2998 colon = test system: HCC-2998 colon
HCT-116 colon = test system: HCT-116 colon
HCT-15 colon = test system: HCT-15 colon
HL-60(TB) leukemia = test system: HL-60(TB) leukemia
HOP-62 NSCLC = test system: HOP-62 NSCLC
HOP-92 NSCLC = test system: HOP-92 NSCLC
HS 578T breast = test system: HS 578T breast
HT29 colon = test system: HT29 colon
IGROV1 ovarian = test system: IGROV1 ovarian
K-562 leukemia = test system: K-562 leukemia
KM12 colon = test system: KM12 colon
LOX IMVI melanoma = test system: LOX IMVI melanoma
M14 melanoma = test system: M14 melanoma
MALME-3M melanoma = test system: MALME-3M melanoma
MCF7 breast = test system: MCF7 breast
MDA-MB-231 breast = test system: MDA-MB-231 breast
MDA-MB-435 = test system: MDA-MB-435
MDA-N = test system: MDA-N
MOLT-4 leukemia = test system: MOLT-4 leukemia
NCI-H226 lung = test system: NCI-H226 lung
NCI-H23 lung = test system: NCI-H23 lung
NCI-H460 lung = test system: NCI-H460 lung
NCI-H522 lung = test system: NCI-H522 lung
NCI/ADR-RES ovarian = test system: NCI/ADR-RES ovarian
OVCAR-3 ovarian = test system: OVCAR-3 ovarian
OVCAR-4 ovarian = test system: OVCAR-4 ovarian
OVCAR-5 ovarian = test system: OVCAR-5 ovarian
OVCAR-8 ovarian = test system: OVCAR-8 ovarian
PC-3 prostate = test system: PC-3 prostate
RPMI-8226 leukemia = test system: RPMI-8226 leukemia
RXF 393 renal = test system: RXF 393 renal
SF-268 CNS = test system: SF-268 CNS
SF-295 CNS = test system: SF-295 CNS
SF-539 CNS = test system: SF-539 CNS
SK-MEL-2 melanoma = test system: SK-MEL-2 melanoma
SK-MEL-28 melanoma = test system: SK-MEL-28 melanoma
SK-MEL-5 melanoma = test system: SK-MEL-5 melanoma
SK-OV-3 ovarian = test system: SK-OV-3 ovarian
SN12C renal = test system: SN12C renal
SNB-19 CNS = test system: SNB-19 CNS
SNB-75 CNS = test system: SNB-75 CNS
SR leukemia = test system: SR leukemia
SW-620 colon = test system: SW-620 colon
T-47D breast = test system: T-47D breast
TK-10 renal = test system: TK-10 renal
U251 CNS = test system: U251 CNS
UACC-257 melanoma = test system: UACC-257 melanoma
UACC-62 melanoma = test system: UACC-62 melanoma
UO-31 renal = test system: UO-31 renal
DLD-1 colon = test system: DLD-1 colon
DMS 114 small cell lung = test system: DMS 114 small cell lung
DMS 273 small cell lung = test system: DMS 273 small cell lung
KM20L2 colon = test system: KM20L2 colon
LXFL 529 NSCLC = test system: LXFL 529 NSCLC
SNB-78 CNS = test system: SNB-78 CNS

## CSc1ccc2c(cc1=O)[C@@H](NC(=O)c1ccc([N+](=O)[O-])cc1)CCc1cc(O)c(O)c(O)c1-2
786-0 renal
  TGI: 84.1 µM
A498 renal
  TGI: > 100 µM
A549 NSCLC
  TGI: 77.7 µM
ACHN renal
  TGI: > 100 µM
BT-549 breast
  TGI: > 100 µM
CAKI-1 renal
  TGI: 42.6 µM
CCRF-CEM leukemia
  TGI: > 100 µM
COLO 205 colon
  TGI: 53.7 µM
DU-145 prostate
  TGI: > 100 µM
EKVX NSCLC
  TGI: > 100 µM
HCC-2998 colon
  TGI: > 100 µM
HCT-116 colon
  TGI: > 100 µM
HCT-15 colon
  TGI: 85.1 µM
HL-60(TB) leukemia
  TGI: 57.5 µM
HOP-62 NSCLC
  TGI: 33.4 µM
HOP-92 NSCLC
  TGI: > 100 µM
HS 578T breast
  TGI: 62 µM
HT29 colon
  TGI: 40.8 µM
IGROV1 ovarian
  TGI: > 100 µM
K-562 leukemia
  TGI: > 100 µM
KM12 colon
  TGI: 37.4 µM
LOX IMVI melanoma
  TGI: > 100 µM
M14 melanoma
  TGI: > 100 µM
MALME-3M melanoma
  TGI: > 100 µM
MCF7 breast
  TGI: > 100 µM
MDA-MB-231 breast
  TGI: 81.2 µM
MDA-MB-435
  TGI: > 100 µM
MDA-N
  TGI: 67.4 µM
MOLT-4 leukemia
  TGI: > 100 µM
NCI-H226 lung
  TGI: > 100 µM
NCI-H23 lung
  TGI: > 100 µM
NCI-H460 lung
  TGI: > 100 µM
NCI-H522 lung
  TGI: > 100 µM
NCI/ADR-RES ovarian
  TGI: 53.6 µM
OVCAR-3 ovarian
  TGI: 31.1 µM
OVCAR-4 ovarian
  TGI: > 100 µM
OVCAR-5 ovarian
  TGI: > 100 µM
OVCAR-8 ovarian
  TGI: > 100 µM
PC-3 prostate
  TGI: > 100 µM
RPMI-8226 leukemia
  TGI: > 100 µM
RXF 393 renal
  TGI: > 100 µM
SF-268 CNS
  TGI: > 100 µM
SF-295 CNS
  TGI: > 100 µM
SF-539 CNS
  TGI: > 100 µM
SK-MEL-2 melanoma
  TGI: > 100 µM
SK-MEL-28 melanoma
  TGI: > 100 µM
SK-MEL-5 melanoma
  TGI: 53.1 µM
SK-OV-3 ovarian
  TGI: > 100 µM
SN12C renal
  TGI: 62.5 µM
SNB-19 CNS
  TGI: > 100 µM
SNB-75 CNS
  TGI: > 100 µM
SR leukemia
  TGI: > 100 µM
SW-620 colon
  TGI: > 100 µM
T-47D breast
  TGI: > 100 µM
TK-10 renal
  TGI: > 100 µM
U251 CNS
  TGI: > 100 µM
UACC-257 melanoma
  TGI: > 100 µM
UACC-62 melanoma
  TGI: > 100 µM
UO-31 renal
  TGI: > 100 µM

## COc1cc2cc3c4c(cc(OC)c(OC)c4c2cc1OC)CCN3C(=O)CCC(=O)O
786-0 renal
  TGI: > 100 µM
A498 renal
  TGI: > 100 µM
A549 NSCLC
  TGI: > 100 µM
ACHN renal
  TGI: > 100 µM
CAKI-1 renal
  TGI: > 100 µM
CCRF-CEM leukemia
  TGI: > 100 µM
COLO 205 colon
  TGI: > 100 µM
DLD-1 colon
  TGI: > 100 µM
DMS 114 small cell lung
  TGI: > 100 µM
DMS 273 small cell lung
  TGI: > 100 µM
EKVX NSCLC
  TGI: > 100 µM
HCC-2998 colon
  TGI: > 100 µM
HCT-116 colon
  TGI: > 100 µM
HL-60(TB) leukemia
  TGI: > 100 µM
HOP-62 NSCLC
  TGI: > 100 µM
HOP-92 NSCLC
  TGI: > 100 µM
HT29 colon
  TGI: > 100 µM
IGROV1 ovarian
  TGI: > 100 µM
K-562 leukemia
  TGI: > 100 µM
KM12 colon
  TGI: > 100 µM
KM20L2 colon
  TGI: > 100 µM
LOX IMVI melanoma
  TGI: > 100 µM
LXFL 529 NSCLC
  TGI: > 100 µM
M14 melanoma
  TGI: > 100 µM
MALME-3M melanoma
  TGI: > 100 µM
MOLT-4 leukemia
  TGI: > 100 µM
NCI-H226 lung
  TGI: > 100 µM
NCI-H23 lung
  TGI: > 100 µM
NCI-H522 lung
  TGI: > 100 µM
OVCAR-3 ovarian
  TGI: > 100 µM
OVCAR-4 ovarian
  TGI: > 100 µM
OVCAR-5 ovarian
  TGI: > 100 µM
RPMI-8226 leukemia
  TGI: > 100 µM
RXF 393 renal
  TGI: > 100 µM
SF-268 CNS
  TGI: > 100 µM
SF-295 CNS
  TGI: > 100 µM
SF-539 CNS
  TGI: > 100 µM
SK-MEL-2 melanoma
  TGI: > 100 µM
SK-MEL-28 melanoma
  TGI: > 100 µM
SK-MEL-5 melanoma
  TGI: > 100 µM
SK-OV-3 ovarian
  TGI: > 100 µM
SN12C renal
  TGI: > 100 µM
SNB-19 CNS
  TGI: > 100 µM
SNB-78 CNS
  TGI: > 100 µM
SR leukemia
  TGI: > 100 µM
SW-620 colon
  TGI: > 100 µM
TK-10 renal
  TGI: > 100 µM
U251 CNS
  TGI: > 100 µM
UACC-257 melanoma
  TGI: > 100 µM
UACC-62 melanoma
  TGI: > 100 µM
UO-31 renal
  TGI: > 100 µM

## Oc1ccccc1-c1nn2c(CCCCCCCCc3nnc4sc(-c5ccccc5O)nn34)nnc2s1
786-0 renal
  TGI: > 100 µM
A498 renal
  TGI: > 89 µM
A549 NSCLC
  TGI: > 78 µM
ACHN renal
  TGI: > 100 µM
BT-549 breast
  TGI: > 100 µM
CAKI-1 renal
  TGI: > 100 µM
CCRF-CEM leukemia
  TGI: 39.3 µM
COLO 205 colon
  TGI: > 100 µM
DU-145 prostate
  TGI: > 75.5 µM
EKVX NSCLC
  TGI: > 88.9 µM
HCC-2998 colon
  TGI: > 100 µM
HCT-116 colon
  TGI: > 71.2 µM
HCT-15 colon
  TGI: > 100 µM
HL-60(TB) leukemia
  TGI: 77.9 µM
HOP-62 NSCLC
  TGI: > 92.2 µM
HOP-92 NSCLC
  TGI: > 100 µM
HS 578T breast
  TGI: > 100 µM
HT29 colon
  TGI: > 67.7 µM
IGROV1 ovarian
  TGI: > 100 µM
K-562 leukemia
  TGI: > 100 µM
KM12 colon
  TGI: > 100 µM
LOX IMVI melanoma
  TGI: > 64.1 µM
M14 melanoma
  TGI: > 77.7 µM
MALME-3M melanoma
  TGI: > 100 µM
MCF7 breast
  TGI: > 100 µM
MDA-MB-231 breast
  TGI: > 100 µM
MDA-MB-435
  TGI: > 100 µM
MDA-N
  TGI: > 100 µM
MOLT-4 leukemia
  TGI: 51.1 µM
NCI-H226 lung
  TGI: > 100 µM
NCI-H23 lung
  TGI: > 100 µM
NCI-H460 lung
  TGI: > 100 µM
NCI-H522 lung
  TGI: 82.5 µM
NCI/ADR-RES ovarian
  TGI: > 100 µM
OVCAR-3 ovarian
  TGI: 64.3 µM
OVCAR-4 ovarian
  TGI: > 100 µM
OVCAR-5 ovarian
  TGI: > 76.6 µM
OVCAR-8 ovarian
  TGI: > 100 µM
PC-3 prostate
  TGI: > 100 µM
RPMI-8226 leukemia
  TGI: > 100 µM
RXF 393 renal
  TGI: > 64.1 µM
SF-268 CNS
  TGI: > 100 µM
SF-295 CNS
  TGI: > 100 µM
SF-539 CNS
  TGI: > 66.6 µM
SK-MEL-2 melanoma
  TGI: > 67.5 µM
SK-MEL-28 melanoma
  TGI: > 100 µM
SK-MEL-5 melanoma
  TGI: 64.8 µM
SK-OV-3 ovarian
  TGI: 83.8 µM
SN12C renal
  TGI: > 100 µM
SNB-19 CNS
  TGI: > 100 µM
SNB-75 CNS
  TGI: > 86.1 µM
SR leukemia
  TGI: > 48.7 µM
SW-620 colon
  TGI: > 100 µM
T-47D breast
  TGI: 52.1 µM
TK-10 renal
  TGI: > 100 µM
U251 CNS
  TGI: > 100 µM
UACC-257 melanoma
  TGI: > 100 µM
UACC-62 melanoma
  TGI: > 100 µM
UO-31 renal
  TGI: 48.5 µM
